{"source": "patent US20090012103A1", "about": "“SUBSTITUTED HETEROCYCLIC COMPOUNDS” (priority 2007, published 2009)", "data": [{"target": "wild-type human cardiac sodium channel, hNav1.5 (Homo sapiens, UniProt Q14524)", "sequence (Q14524 whole entry)": "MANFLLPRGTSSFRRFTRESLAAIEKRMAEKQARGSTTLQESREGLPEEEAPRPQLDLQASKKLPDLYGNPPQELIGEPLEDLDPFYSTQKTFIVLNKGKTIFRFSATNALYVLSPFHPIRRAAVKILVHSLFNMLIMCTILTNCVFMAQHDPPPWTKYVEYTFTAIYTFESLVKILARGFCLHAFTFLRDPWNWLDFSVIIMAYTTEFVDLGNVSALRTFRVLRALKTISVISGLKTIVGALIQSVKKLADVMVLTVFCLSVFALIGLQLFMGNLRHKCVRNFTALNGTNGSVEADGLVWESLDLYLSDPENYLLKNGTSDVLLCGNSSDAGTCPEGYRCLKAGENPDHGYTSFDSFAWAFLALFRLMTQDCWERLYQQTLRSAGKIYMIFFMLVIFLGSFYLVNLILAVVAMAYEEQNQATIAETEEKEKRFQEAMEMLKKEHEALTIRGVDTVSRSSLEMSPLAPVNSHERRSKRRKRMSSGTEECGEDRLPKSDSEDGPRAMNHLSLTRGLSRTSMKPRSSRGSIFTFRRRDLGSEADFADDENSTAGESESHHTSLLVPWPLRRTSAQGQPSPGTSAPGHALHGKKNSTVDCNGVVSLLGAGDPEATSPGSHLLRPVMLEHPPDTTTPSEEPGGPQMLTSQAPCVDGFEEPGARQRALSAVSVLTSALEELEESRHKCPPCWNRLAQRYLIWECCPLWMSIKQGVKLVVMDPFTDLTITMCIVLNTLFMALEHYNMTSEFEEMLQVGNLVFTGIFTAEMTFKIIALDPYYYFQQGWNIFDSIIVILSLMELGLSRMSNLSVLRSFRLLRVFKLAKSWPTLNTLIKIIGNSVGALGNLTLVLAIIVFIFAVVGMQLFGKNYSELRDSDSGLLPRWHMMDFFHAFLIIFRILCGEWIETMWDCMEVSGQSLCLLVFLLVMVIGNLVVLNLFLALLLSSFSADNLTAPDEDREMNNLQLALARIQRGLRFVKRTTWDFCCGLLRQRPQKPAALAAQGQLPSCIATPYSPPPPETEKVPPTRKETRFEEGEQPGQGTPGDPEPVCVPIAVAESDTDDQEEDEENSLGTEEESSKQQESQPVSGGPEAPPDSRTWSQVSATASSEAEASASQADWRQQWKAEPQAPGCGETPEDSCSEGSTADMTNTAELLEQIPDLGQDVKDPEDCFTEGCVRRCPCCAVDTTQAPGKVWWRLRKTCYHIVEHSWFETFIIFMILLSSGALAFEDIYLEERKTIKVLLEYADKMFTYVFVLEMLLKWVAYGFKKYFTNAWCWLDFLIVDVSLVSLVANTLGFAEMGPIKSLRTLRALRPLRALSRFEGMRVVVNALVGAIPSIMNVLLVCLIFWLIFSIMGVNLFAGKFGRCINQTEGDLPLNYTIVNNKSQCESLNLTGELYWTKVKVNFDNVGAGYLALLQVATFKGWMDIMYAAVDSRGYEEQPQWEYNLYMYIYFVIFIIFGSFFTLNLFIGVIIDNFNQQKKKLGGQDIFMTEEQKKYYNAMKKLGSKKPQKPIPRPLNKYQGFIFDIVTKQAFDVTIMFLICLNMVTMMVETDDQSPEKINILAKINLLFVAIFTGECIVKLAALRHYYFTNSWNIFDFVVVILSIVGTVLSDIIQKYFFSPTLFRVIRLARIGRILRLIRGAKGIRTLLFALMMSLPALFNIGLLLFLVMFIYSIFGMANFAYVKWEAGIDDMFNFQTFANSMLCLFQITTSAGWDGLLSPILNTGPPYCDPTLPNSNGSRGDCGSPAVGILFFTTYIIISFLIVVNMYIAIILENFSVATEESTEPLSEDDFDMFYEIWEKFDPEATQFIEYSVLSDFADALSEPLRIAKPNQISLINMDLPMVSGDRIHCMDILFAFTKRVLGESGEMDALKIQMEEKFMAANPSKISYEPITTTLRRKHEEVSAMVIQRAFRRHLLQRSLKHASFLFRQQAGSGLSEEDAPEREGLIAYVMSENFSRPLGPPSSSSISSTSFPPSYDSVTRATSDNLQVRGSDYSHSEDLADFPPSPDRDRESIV", "assay": "Late INa screening assay (late sodium current, PatchXpress whole cell patch clamp)", "format": "cell-based", "conditions": "compound at 10 μM", "method": "(§1) The late sodium current (Late INa) and peak sodium current (Peak INa) assays are performed on an automated electrophysiology platform, PatchXpress 7000A (MDS Analytical Technologies, Sunnyvale, Calif.), which uses the whole cell patch clamp technique to measure currents through the cell membrane of up to 16 cells at a time. The assay uses an HEK293 (human embryonic kidney) cell line heterologously expressing the wild-type human cardiac sodium channel, hNav1.5, purchased from Millipore (Billerica, Mass.). No beta subunits were coexpressed with the Na channel alpha subunit. […] Experiments are carried out at 24-27° C.\n(§2) For both the Late INa and Peak INa assays, series resistance compensation is set to 50% and whole-cell compensation is performed automatically. […] Currents through open sodium channels are automatically recorded and stored in the DataXpress2 database (MDS Analytical Technologies, Sunnyvale, Calif.). Analysis is performed using DataXpress2 analysis software and data are compiled in Excel.\n(§3) Compound stocks are routinely made in glass vials to 10 mM in dimethyl sulfoxide (DMSO). In some cases, when compounds are not soluble in DMSO, they are made in 100% ethanol. Stocks are sonicated as necessary. The extracellular solution for screening Late INa is composed of: 140 mM NaCl, 4 mM KCl, 1.8 mM CaCl2, 0.75 mM MgCl2, and 5 mM HEPES with pH adjusted to 7.4 using NaOH. The extracellular solution for screening Peak INa is composed of: 20 mM NaCl, 120 mM N-methyl-D glucamine, 4 mM KCl, 1.8 mM CaCl2, 0.75 mM MgCl2, and 5 mM HEPES with pH adjusted to 7.4 using HCl. The intracellular solution used to perfuse the inside of the cells for both the Late INa and Peak INa assays contains: 120 mM CsF, 20 mM CsCl, 5 mM EGTA, 5 mM HEPES and pH adjusted to 7.4 with CsOH. Compounds are diluted in extracellular solution to 10 μM in glass vials and then transferred to glass well plates before robotic addition to the cells. The 0 Na extracellular solution used at the end of each experiment for the Late INa and Peak INa assays to measure baseline current contains: 140 mM N-methyl-D-glucamine; 4 mM KCl; 1.8 mM CaCl2; 0.75 mM MgCl2; 5 mM HEPES and pH was adjusted to 7.4 with HCl.\n(§4) For the Late INa assay, sodium channels are activated every 10 seconds (0.1 Hz) by depolarizing the cell membrane to −20 mV for 250 milliseconds (ms) from a holding potential of −120 mV.\n(§5) All compounds are tested to determine their activity in blocking the late sodium current. Late INa current is generated by adding 10 μM Tefluthrin (pyrethroid) to the extracellular solution while recording Na currents. […] For some experiments, 50 nM ATX II (sea anemone toxin), another late INa activator, was used to generate the late component. […] Baseline current in the absence of Na^+ ions is measured at the end of each experiment (after two additions of 0 Na solution-see above) and is used to calculate the percent block by compound.", "units": {"Late INa % blk": "%"}, "values": [{"smiles": "CC1=C(C(=O)OC(C)C)C(c2c[nH]nc2-c2ccc(F)cc2)C(C(=O)OC(C)C)=C(C)N1", "note": "[PT-128, diisopropyl 4-(3-(4-fluorophenyl)-1H-pyrazol-4-yl)-2,6-dimethyl-1,4-dihydropyridine-3,5-dicarboxylate]", "Late INa % blk": 34.1}]}, {"target": "wild-type human cardiac sodium channel, hNav1.5 (Homo sapiens, UniProt Q14524)", "assay": "Late INa screening assay (late sodium current, PatchXpress whole cell patch clamp)", "format": "cell-based", "conditions": "compound at 10 μM; read-out: Late INa % blk", "method": "as §1, §2, §3, §4, §5", "units": {"inhibition at 10 µM": "%"}, "values": [{"smiles": "CCOC(=O)c1c(C)nc(C)c(C(=O)OCC)c1-c1sc2ccccc2c1C", "note": "[PT-117, diethyl 2,6-dimethyl-4-(3-methylbenzo[b]thiophen-2-yl)pyridine-3,5-dicarboxylate]", "inhibition at 10 µM": 38.9}, {"smiles": "CCOC(=O)C1=C(C)NC(C)=C(C(=O)OCC)C1c1ccc(-c2ccc(Cl)cc2)o1", "note": "[PT-118, diethyl 4-(5-(4-chlorophenyl)furan-2-yl)-2,6-dimethyl-1,4-dihydropyridine-3,5-dicarboxylate]", "inhibition at 10 µM": -3.8}, {"smiles": "CCOC(=O)C1=C(C)NC(C)=C(C(=O)OCC)C1c1ccc(-c2ccccc2C(F)(F)F)o1", "note": "[PT-119, diethyl 2,6-dimethyl-4-(5-(2-(trifluoromethyl)phenyl)furan-2-yl)-1,4-dihydropyridine-3,5-dicarboxylate]", "inhibition at 10 µM": 3.8}, {"smiles": "CCOC(=O)C1=C(C)NC(C)=C(C(=O)OCC)C1c1ccoc1", "note": "[PT-120, diethyl 4-(furan-3-yl)-2,6-dimethyl-1,4-dihydropyridine-3,5-dicarboxylate]", "inhibition at 10 µM": 25.7}, {"smiles": "CCOC(=O)C1=C(C)NC(C)=C(C(=O)OCC)C1c1ccc(CC)o1", "note": "[PT-121, diethyl 4-(5-ethylfuran-2-yl)-2,6-dimethyl-1,4-dihydropyridine-3,5-dicarboxylate]", "inhibition at 10 µM": 54.8}, {"smiles": "COCCOC(=O)C1=C(C)NC(C)=C(C(=O)OCCOC)C1c1sccc1Br", "note": "[PT-125, bis(2-methoxyethyl) 4-(3-bromothiophen-2-yl)-2,6-dimethyl-1,4-dihydropyridine-3,5-dicarboxylate]", "inhibition at 10 µM": 10.3}, {"smiles": "CC1=C(C(=O)OC(C)C)C(c2ccc(-c3ccc(Cl)cc3)o2)C(C(=O)OC(C)C)=C(C)N1", "note": "[PT-126, diisopropyl 4-(5-(4-chlorophenyl)furan-2-yl)-2,6-dimethyl-1,4-dihydropyridine-3,5-dicarboxylate]", "inhibition at 10 µM": -39}, {"smiles": "CC1=C(C(=O)OC(C)C)C(c2cnn(-c3ccc(F)cc3)c2C)C(C(=O)OC(C)C)=C(C)N1", "note": "[PT-127, diisopropyl 4-(1-(4-fluorophenyl)-5-methyl-1H-pyrazol-4-yl)-2,6-dimethyl-1,4-dihydropyridine-3,5-dicarboxylate]", "inhibition at 10 µM": 1.1}, {"smiles": "CC1=C(C(=O)OCc2ccccc2)C(c2ccc3ccccc3c2)C(C(=O)OCc2ccccc2)=C(C)N1", "note": "[PT-129, dibenzyl 2,6-dimethyl-4-(naphthalen-2-yl)-1,4-dihydropyridine-3,5-dicarboxylate]", "inhibition at 10 µM": 17.6}, {"smiles": "COc1ccc(COC(=O)C2=C(C)NC(C)=C(C(=O)OCc3ccc(OC)c(OC)c3)C2c2ccc3ccccc3c2)cc1OC", "note": "[PT-130, bis(3,4-dimethoxybenzyl) 2,6-dimethyl-4-(naphthalen-2-yl)-1,4-dihydropyridine-3,5-dicarboxylate]", "inhibition at 10 µM": 15.7}, {"smiles": "CCOC(=O)C1=C(C)NC2=C(C(=O)CC(C)(C)C2)C1c1cccc(C(=O)O)c1", "note": "(stereo not drawn) [PT-132, 3-(3-(ethoxycarbonyl)-2,7,7-trimethyl-5-oxo-1,4,5,6,7,8-hexahydroquinolin-4-yl)benzoic acid]", "inhibition at 10 µM": -5.3}, {"smiles": "CCOC(=O)C1=C(C)NC2=C(C(=O)CCC2)C1c1c(OC)ccc2ccccc12", "note": "(stereo not drawn) [PT-134, ethyl 4-(2-methoxynaphthalen-1-yl)-2-methyl-5-oxo-1,4,5,6,7,8-hexahydroquinoline-3-carboxylate]", "inhibition at 10 µM": 15.5}, {"smiles": "CCOC(=O)C1=C(CC)NC2=C(C(=O)CCC2)C1c1ccc(OC)c2ccccc12", "note": "(stereo not drawn) [PT-136, ethyl 2-ethyl-4-(4-methoxynaphthalen-1-yl)-5-oxo-1,4,5,6,7,8-hexahydroquinoline-3-carboxylate]", "inhibition at 10 µM": 45.2}, {"smiles": "CCOC(=O)C1=C(C)NC2=C(C(=O)CCC2)C1c1ccc2cc(OC)ccc2c1", "note": "(stereo not drawn) [PT-137, ethyl 4-(6-methoxynaphthalen-2-yl)-2-methyl-5-oxo-1,4,5,6,7,8-hexahydroquinoline-3-carboxylate]", "inhibition at 10 µM": 25.3}]}]}
